Assay results published in patent US20110313006A1, “PHARMACEUTICAL COMPOSITION OF LEVAMLODIPINE OR PHARMACEUTICALLY ACCEPTABLE SALT THEREOF AND β RECEPTOR BLOCKING AGENT, AND USE THEREOF” (SHIHUIDA PHARMACEUTICALS GROUP (JILIN) LTD, priority 2010, published 2011).

test system: SHR rats having spontaneous hypertension; assay: Antihypertension test in rat (systolic pressure at the tail artery, tail volume method); assay type: in vivo; settings: SHR rats, intragastric daily, n = 10; end of week 1; dose per group in Table 1
Excerpt: Experiment method: 120 SHR rats having spontaneous hypertension (female:male 1:2, weighted 200-240 g) were equally divided into 12 groups according to the level of hypertension (the specific grouping method is as shown in Table 1), and intragastrically administrated with the medicine. For the blood pressure of the rat, the systolic pressure at the tail artery of the rat when being wake and quiet was indirectly measured by an electronic blood pressure meter through tail volume method respectively before administration, and at the end of 1, 2, 3, and 4 weeks after administration.

| Molecule | Blood pressure (systolic pressure at the tail artery), 1 week after administration |
| --- | --- |
| OC(CNCC(O)C1CCc2cc(F)ccc2O1)C1CCc2cc(F)ccc2O1 (stereo not shown) [Single medicine group 2, Nebivolol] | 27.28 ± 1.48 Kpa |
| CC(C)NCC(O)COc1ccc(COCCOC(C)C)cc1 (stereo not shown) [Single medicine group 3, Bisoprolol] | 27.34 ± 1.41 Kpa |
| CC(C)(C)NCC(O)COc1cccc2c1CC(O)C(O)C2 (stereo not shown) [Single medicine group 6, Nadolol] | 27.30 ± 1.56 Kpa |
| CCN(CC)C(=O)Nc1ccc(OCC(O)CNC(C)(C)C)c(C(C)=O)c1 (stereo not shown) [Single medicine group 5, Celiprolol] | 27.41 ± 1.30 Kpa |

same assay, conditions: SHR rats, intragastric daily, n = 10; end of week 2; dose per group in Table 1

| Molecule | Blood pressure (systolic pressure at the tail artery), 2 weeks after administration |
| --- | --- |
| OC(CNCC(O)C1CCc2cc(F)ccc2O1)C1CCc2cc(F)ccc2O1 (stereo not shown) [Single medicine group 2, Nebivolol] | 25.94 ± 1.68 KPa |
| CC(C)NCC(O)COc1ccc(COCCOC(C)C)cc1 (stereo not shown) [Single medicine group 3, Bisoprolol] | 26.14 ± 1.19 KPa |
| CC(C)(C)NCC(O)COc1cccc2c1CC(O)C(O)C2 (stereo not shown) [Single medicine group 6, Nadolol] | 26.01 ± 1.42 KPa |
| CC(C)NCC(O)COc1ccc(CCOCC2CC2)cc1 (stereo not shown) [Single medicine group 4, Betaxolol] | 25.99 ± 1.39 KPa |

same assay, conditions: SHR rats, intragastric daily, n = 10; end of week 3; dose per group in Table 1

| Molecule | Blood pressure (systolic pressure at the tail artery), 3 weeks after administration |
| --- | --- |
| OC(CNCC(O)C1CCc2cc(F)ccc2O1)C1CCc2cc(F)ccc2O1 (stereo not shown) [Single medicine group 2, Nebivolol] | 25.57 ± 1.61 KPa |
| CC(C)NCC(O)COc1ccc(COCCOC(C)C)cc1 (stereo not shown) [Single medicine group 3, Bisoprolol] | 25.82 ± 1.20 KPa |
| CC(C)(C)NCC(O)COc1cccc2c1CC(O)C(O)C2 (stereo not shown) [Single medicine group 6, Nadolol] | 25.62 ± 1.47 KPa |
| CCN(CC)C(=O)Nc1ccc(OCC(O)CNC(C)(C)C)c(C(C)=O)c1 (stereo not shown) [Single medicine group 5, Celiprolol] | 25.83 ± 1.92 KPa |
| CC(C)NCC(O)COc1ccc(CCOCC2CC2)cc1 (stereo not shown) [Single medicine group 4, Betaxolol] | 25.62 ± 1.46 KPa |

same assay, conditions: SHR rats, intragastric daily, n = 10; end of week 4; dose per group in Table 1

| Molecule | Blood pressure (systolic pressure at the tail artery), 4 weeks after administration |
| --- | --- |
| OC(CNCC(O)C1CCc2cc(F)ccc2O1)C1CCc2cc(F)ccc2O1 (stereo not shown) [Single medicine group 2, Nebivolol] | 25.29 ± 1.49 KPa |
| CC(C)NCC(O)COc1ccc(COCCOC(C)C)cc1 (stereo not shown) [Single medicine group 3, Bisoprolol] | 25.58 ± 1.24 KPa |
| CCN(CC)C(=O)Nc1ccc(OCC(O)CNC(C)(C)C)c(C(C)=O)c1 (stereo not shown) [Single medicine group 5, Celiprolol] | 25.60 ± 2.05 KPa |

same assay, conditions: SHR rats, intragastric, n = 10; baseline before administration; mean ± spread; dose per group in Table 1

| Molecule | Blood pressure (systolic pressure at the tail artery), before administration |
| --- | --- |
| OC(CNCC(O)C1CCc2cc(F)ccc2O1)C1CCc2cc(F)ccc2O1 (stereo not shown) [Single medicine group 2, Nebivolol] | 27.42 ± 1.50 KPa |
| CC(C)NCC(O)COc1ccc(COCCOC(C)C)cc1 (stereo not shown) [Single medicine group 3, Bisoprolol] | 27.52 ± 1.46 KPa |
| CC(C)(C)NCC(O)COc1cccc2c1CC(O)C(O)C2 (stereo not shown) [Single medicine group 6, Nadolol] | 27.51 ± 1.53 KPa |
| CCN(CC)C(=O)Nc1ccc(OCC(O)CNC(C)(C)C)c(C(C)=O)c1 (stereo not shown) [Single medicine group 5, Celiprolol] | 27.56 ± 1.23 KPa |
| CC(C)NCC(O)COc1ccc(CCOCC2CC2)cc1 (stereo not shown) [Single medicine group 4, Betaxolol] | 27.45 ± 1.07 KPa |

same assay, conditions: SHR rats, intragastric; versus model group (0.9% saline)

| Molecule | Anti-hypertensive effect compared with the model group |
| --- | --- |
| OC(CNCC(O)C1CCc2cc(F)ccc2O1)C1CCc2cc(F)ccc2O1 (stereo not shown) [Single medicine group 2, Nebivolol] | significant anti-hypertensive effect |
| CC(C)NCC(O)COc1ccc(COCCOC(C)C)cc1 (stereo not shown) [Single medicine group 3, Bisoprolol] | significant anti-hypertensive effect |
| CC(C)(C)NCC(O)COc1cccc2c1CC(O)C(O)C2 (stereo not shown) [Single medicine group 6, Nadolol] | significant anti-hypertensive effect |
| CCN(CC)C(=O)Nc1ccc(OCC(O)CNC(C)(C)C)c(C(C)=O)c1 (stereo not shown) [Single medicine group 5, Celiprolol] | significant anti-hypertensive effect |
| CC(C)NCC(O)COc1ccc(CCOCC2CC2)cc1 (stereo not shown) [Single medicine group 4, Betaxolol] | significant anti-hypertensive effect |
| Levamlodipine benzenesulfonate [Single medicine group 1] | significant anti-hypertensive effect |

same assay, conditions: po, 168 h

| Molecule | Blood pressure (systolic pressure at the tail artery), 1 week after administration |
| --- | --- |
| CC(C)NCC(O)COc1ccc(CCOCC2CC2)cc1 (stereo not shown) [Single medicine group 4, Betaxolol] | 27.20 ± 1.10 Kpa |
